Measurements reported in paper PMC10575282, “Elettaria cardamomum (L.) Maton Essential Oil: An Interesting Source of Bioactive Specialized Metabolites as Inhibitors of Acetylcholinesterase and Butyrylcholinesterase” (Plants, 2023).

How the values were obtained:
[1] = target: T1, butyrylcholinesterase (BChE) from equine serum (Equus caballus, UniProt P81908); test: biochemical; type: biochemical; settings: for BChE Inhibition (%): fractions/compounds at the concentrations in which they are present in EO, average of three assays
T1 construct: butyrylcholinesterase (BChE) from equine serum; purchased Merck Life Science S.r.l; (Milan, Italy); host or cells: equine serum
Experimental: (§1) The protocol used in this study was that of Rhee et al., with slight modifications. The following buffers were used: buffer A (50 mM Tris-HCl pH 8), buffer B (50 mM Tris-HCl pH 8, with the addition of 0.1% of bovine albumin and 0.1% of TWEEN20), and buffer C (50 mM Tris-HCl pH 8, with the addition of 0.1 M of NaCl and 0.02 M of MgCl2 6H2O). The enzyme solution of 0.22 U/mL was prepared in buffer B. The acetylthiocholine iodide (ATCI) solution of 1.5 mM was prepared in Millipore water, while the butyrylthiocholine iodide (BTCI) solution was prepared in buffer A. Ellman’s reagent solution at 3 mM was prepared in buffer C.
(§2) The reaction mixture was incubated at 30 °C for 6 min. The absorbance values were measured at 405 nm after incubation. […] The control and sample blank solutions were prepared by replacing 150 µL of the enzyme solution with 150 µL of buffer A.
(§3) The percentage of the AChE or BChE inhibition was measured according to the equation below:% Inhibition = ΔA (Control) − ΔA (Sample)/ΔA (Control) × 100 ΔA (Control) = A412 (Control) − A412 (Control Blank) ΔA(Sample) = A412 (Sample) − A412 (Sample Blank)
(§4) The concentration–response curve was determined for each inhibitor by plotting the inhibitory activity against AChE or BChE as a function of the inhibitor concentration in the reaction mixture.
(§5) The Microsoft Excel programme was used for the Anova test. For the IC50 calculation, an online programme from AAT Bioquest was used (https://www.aatbio.com/tools/ic50-calculator, accessed on 10 May 2023).

BChE = test system: BChE; design: method as in doi:10.1016/j.jff.2020.103892; settings: cited from earlier work
[2] = target: T2, acetylcholinesterase (AChE) from Electrophorus electricus (Electrophorus electricus, UniProt O42275); test: biochemical; type: biochemical; settings: for AChE Inhibition (%): fractions/compounds at the concentrations in which they are present in EO, average of three assays; for IC50 AChE: ± standard deviation, n = 3
T2 construct: purchased Merck Life Science S.r.l; (Milan, Italy)
Experimental: as §1, §2, §3, §4, §5

AChE = settings: cited from earlier work

T1 sequence (P81908 whole entry): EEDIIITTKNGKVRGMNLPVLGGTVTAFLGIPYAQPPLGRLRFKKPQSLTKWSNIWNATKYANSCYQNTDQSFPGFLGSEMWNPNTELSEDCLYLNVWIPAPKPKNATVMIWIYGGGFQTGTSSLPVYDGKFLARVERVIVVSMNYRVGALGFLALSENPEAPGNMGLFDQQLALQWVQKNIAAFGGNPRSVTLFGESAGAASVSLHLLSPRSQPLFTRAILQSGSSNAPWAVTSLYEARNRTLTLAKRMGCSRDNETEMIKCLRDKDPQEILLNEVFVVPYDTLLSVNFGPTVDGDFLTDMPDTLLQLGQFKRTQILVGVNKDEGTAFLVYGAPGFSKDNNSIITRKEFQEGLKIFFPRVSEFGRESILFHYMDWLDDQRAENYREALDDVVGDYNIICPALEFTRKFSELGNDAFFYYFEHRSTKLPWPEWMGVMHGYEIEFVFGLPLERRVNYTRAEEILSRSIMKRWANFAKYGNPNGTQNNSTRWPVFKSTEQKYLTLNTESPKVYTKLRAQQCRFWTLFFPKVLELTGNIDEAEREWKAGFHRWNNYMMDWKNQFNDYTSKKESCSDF
T2 sequence (O42275 24-633): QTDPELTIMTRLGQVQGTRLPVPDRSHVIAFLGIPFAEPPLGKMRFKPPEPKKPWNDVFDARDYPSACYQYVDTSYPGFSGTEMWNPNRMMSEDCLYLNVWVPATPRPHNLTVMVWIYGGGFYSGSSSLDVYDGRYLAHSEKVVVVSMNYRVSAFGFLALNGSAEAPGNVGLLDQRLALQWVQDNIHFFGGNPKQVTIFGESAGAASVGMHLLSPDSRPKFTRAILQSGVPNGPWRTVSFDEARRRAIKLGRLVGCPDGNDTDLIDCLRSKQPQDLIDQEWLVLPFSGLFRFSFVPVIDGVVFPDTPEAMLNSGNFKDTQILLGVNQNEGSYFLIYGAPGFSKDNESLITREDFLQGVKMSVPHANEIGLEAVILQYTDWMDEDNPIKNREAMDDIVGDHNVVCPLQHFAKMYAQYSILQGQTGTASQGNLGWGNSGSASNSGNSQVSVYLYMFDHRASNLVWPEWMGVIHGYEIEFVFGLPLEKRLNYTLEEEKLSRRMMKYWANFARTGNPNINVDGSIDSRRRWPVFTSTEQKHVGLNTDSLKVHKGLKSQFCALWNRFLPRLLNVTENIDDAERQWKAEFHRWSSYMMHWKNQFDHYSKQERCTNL

For `C=CC(C)(O)CCC=C(C)C` (stereo not shown) [Linalool, linalool], the “BChE Inhibition (%)” value [1] was 5.0% and the “BChE Inhibition (%)” value ([1]; listed as linalool) was “active”.

For `CC(=O)OC(C)(C)C1CC=C(C)CC1` (stereo not drawn) [α-terpinyl acetate], the “Type of inhibition of BChE” value (BChE) is given as “mixed inhibition”, the “AChE Inhibition (%)” value [2] is given as 17.0% and the “IC50 AChE” value [2] is given as 50% inhibition was never achieved. The “IC50 AChE” value ([2]; listed as α-Terpinyl acetate) was “Activity lower than 50%”, the “BChE Inhibition (%)” value [1] was 39.0% and the IC50 ([1]; ± standard deviation, n = 3) was 112 µM. For the same molecule, the “Type of inhibition of AChE” value (AChE) was “competitive inhibition”.

In the case of `CC12CCC(CC1)C(C)(C)O2` [1,8-cineole], the IC50 [2] is reported as 91.4 µM, the “AChE Inhibition (%)” value [2] is reported as 55.4% and the “IC50 BChE” value ([1]; ± standard deviation, n = 3) is reported as “inactive inhibitor of BChE”. The “IC50 BChE” value ([1]; ± standard deviation, n = 3, listed as 1,8-Cineole) was “not active” and the AChE inhibition (AChE; mechanism still unclear) was “known to actively inhibit AChE”.

In the case of `C=CC(C)(CCC=C(C)C)OC(C)=O` (stereo not shown) [Linalyl acetate, linalyl acetate], the “BChE Inhibition (%)” value [1] is reported as 10.3% and the “BChE Inhibition (%)” value ([1]; listed as linalyl acetate) is reported as “active”.
